Measurements from patent US8962641B2, “Pyrimidine-substituted pyrrolidine derivatives, pharmaceutical compositions and uses thereof” (Boehringer Ingelheim International GmbH, priority 2013, dated 2015).

Molecular target: human ACC2 (Homo sapiens (Human), UniProt O00763)
Experiment: ACC2 assay (spectrophotometric 384 well assay, NADH-linked kinetic method)
Assay type: biochemical
Conditions: hACC2 construct lacking 128 N-terminal amino acids; coupled lactate dehydrogenase/pyruvate kinase reaction, 340 nm, 25° C.
Method in brief: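 Baculovirus/insect-cell human ACC2, anion-exchange purified; ADP formation coupled to pyruvate kinase/lactate dehydrogenase, NADH loss followed at 340 nm, 25° C, 15 min. Final 200 μM NADH and acetyl-CoA, 500 uM ATP; vehicle and no-acetyl-CoA wells set 100% and 0%.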

human ACC2, sequence (O00763 129-2458): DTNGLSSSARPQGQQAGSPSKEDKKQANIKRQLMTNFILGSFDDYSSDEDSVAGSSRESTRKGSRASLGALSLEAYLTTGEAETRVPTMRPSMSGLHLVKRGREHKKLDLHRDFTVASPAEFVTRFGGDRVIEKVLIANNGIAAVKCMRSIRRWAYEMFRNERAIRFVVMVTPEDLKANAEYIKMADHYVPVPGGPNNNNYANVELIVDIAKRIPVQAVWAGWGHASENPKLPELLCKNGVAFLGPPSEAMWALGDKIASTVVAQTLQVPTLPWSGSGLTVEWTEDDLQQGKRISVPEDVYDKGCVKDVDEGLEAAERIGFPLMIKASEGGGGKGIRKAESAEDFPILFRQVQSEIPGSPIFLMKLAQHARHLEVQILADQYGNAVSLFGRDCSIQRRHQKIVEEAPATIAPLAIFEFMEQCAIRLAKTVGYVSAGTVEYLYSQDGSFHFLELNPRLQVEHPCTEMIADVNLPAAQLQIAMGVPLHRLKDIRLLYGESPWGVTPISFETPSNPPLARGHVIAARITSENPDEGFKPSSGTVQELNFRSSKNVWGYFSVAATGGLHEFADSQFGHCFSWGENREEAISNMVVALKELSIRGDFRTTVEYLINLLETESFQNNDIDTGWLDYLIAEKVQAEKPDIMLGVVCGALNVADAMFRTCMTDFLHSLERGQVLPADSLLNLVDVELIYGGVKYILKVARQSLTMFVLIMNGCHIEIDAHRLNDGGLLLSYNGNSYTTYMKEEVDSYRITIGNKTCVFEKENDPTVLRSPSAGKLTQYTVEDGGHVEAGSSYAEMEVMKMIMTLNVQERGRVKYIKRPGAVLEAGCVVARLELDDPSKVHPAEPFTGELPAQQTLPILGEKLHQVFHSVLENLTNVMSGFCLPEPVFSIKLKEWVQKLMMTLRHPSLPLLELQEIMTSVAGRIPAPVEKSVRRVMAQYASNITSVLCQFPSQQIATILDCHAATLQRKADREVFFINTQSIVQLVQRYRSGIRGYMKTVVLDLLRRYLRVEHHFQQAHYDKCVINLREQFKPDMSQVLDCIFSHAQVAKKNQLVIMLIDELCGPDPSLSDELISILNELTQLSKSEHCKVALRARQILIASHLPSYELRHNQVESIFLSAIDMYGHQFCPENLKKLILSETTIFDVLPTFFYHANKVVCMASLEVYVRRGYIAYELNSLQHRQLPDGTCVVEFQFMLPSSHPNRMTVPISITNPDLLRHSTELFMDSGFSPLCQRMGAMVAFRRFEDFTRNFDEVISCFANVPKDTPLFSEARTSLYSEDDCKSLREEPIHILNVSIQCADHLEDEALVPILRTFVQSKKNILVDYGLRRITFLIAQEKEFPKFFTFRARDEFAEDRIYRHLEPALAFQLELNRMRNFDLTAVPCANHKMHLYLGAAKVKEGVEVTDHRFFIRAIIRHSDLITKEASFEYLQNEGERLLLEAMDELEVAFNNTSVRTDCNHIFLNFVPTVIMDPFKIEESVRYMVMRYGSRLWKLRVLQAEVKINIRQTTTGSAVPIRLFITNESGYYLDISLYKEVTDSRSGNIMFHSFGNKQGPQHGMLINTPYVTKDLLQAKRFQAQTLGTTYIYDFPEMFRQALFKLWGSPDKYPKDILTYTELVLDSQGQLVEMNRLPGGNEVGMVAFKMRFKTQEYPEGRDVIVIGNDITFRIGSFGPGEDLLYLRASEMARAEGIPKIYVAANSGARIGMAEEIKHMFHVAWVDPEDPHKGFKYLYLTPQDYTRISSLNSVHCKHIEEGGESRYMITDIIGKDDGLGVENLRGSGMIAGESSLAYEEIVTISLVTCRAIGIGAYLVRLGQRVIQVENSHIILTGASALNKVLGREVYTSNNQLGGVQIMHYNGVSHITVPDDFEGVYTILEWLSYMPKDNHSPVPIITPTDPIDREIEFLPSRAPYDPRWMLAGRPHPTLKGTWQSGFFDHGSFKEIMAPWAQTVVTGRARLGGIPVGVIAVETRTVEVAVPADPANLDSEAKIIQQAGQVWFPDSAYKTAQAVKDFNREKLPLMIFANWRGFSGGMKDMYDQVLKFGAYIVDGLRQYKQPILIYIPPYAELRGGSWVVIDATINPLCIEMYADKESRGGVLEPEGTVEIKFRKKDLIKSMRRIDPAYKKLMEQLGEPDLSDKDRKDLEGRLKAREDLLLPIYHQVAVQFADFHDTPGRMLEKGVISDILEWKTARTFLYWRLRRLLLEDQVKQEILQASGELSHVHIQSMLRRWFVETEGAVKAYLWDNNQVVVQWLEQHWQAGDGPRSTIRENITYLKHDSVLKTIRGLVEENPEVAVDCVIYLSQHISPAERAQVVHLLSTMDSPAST

| Structure (SMILES) | IC50 [nM] |
| --- | --- |
| CC(=O)N[C@@H](C)c1ccc(O[C@@H]2CCN(c3nc(N4CCCC4(C)C)ncc3F)C2)cc1 [Example 8.271] | 170 |
| CC(=O)N[C@@H](C)c1ccc(O[C@@H]2CCN(c3nc(N4CC5COCC5C4)ncc3F)C2)cc1 (stereo partly drawn) [Example 8.272] | 1190 |
| CC(=O)N[C@@H](C)c1ccc(O[C@@H]2CCN(c3nc(N4CCC(C)(O)CC4)ncc3F)C2)cc1 [Example 8.273] | 1350 |
| CC(=O)N[C@@H](C)c1ccc(O[C@@H]2CCN(c3nc(N4CCOC(C)C4)ncc3F)C2)cc1 (stereo partly drawn) [Example 8.274] | 130 |
| COC1CCCN(c2ncc(F)c(N3CC[C@@H](Oc4ccc([C@H](C)NC(C)=O)cc4)C3)n2)C1 (stereo partly drawn) [Example 8.275] | 183 |
| CC(=O)N[C@@H](C)c1ccc(O[C@@H]2CCN(c3nc(N4CCC5(CC5)C4)ncc3Cl)C2)cc1 [Example 8.276] | 174 |
| CC(=O)N[C@@H](C)c1ccc(O[C@@H]2CCN(c3ccnc(N4C[C@@H]5CC[C@@H](C4)O5)n3)C2)cc1 [Example 8.277] | 867 |
| CC(=O)N[C@@H](C)c1ccc(O[C@@H]2CCN(c3ncnc(N4C[C@@H]5CC[C@@H](C4)O5)c3F)C2)cc1 [Example 8.278] | 673 |
| CC(=O)N[C@@H](C)c1ccc(O[C@@H]2CCN(c3nc(N4C[C@@H]5CC[C@@H](C4)O5)ncc3F)C2)cc1 [Example 8.279] | 369 |
| CC(=O)N[C@@H](C)c1ccc(O[C@@H]2CCN(c3nc(N4C[C@@H]5CC[C@@H](C4)O5)ncc3Cl)C2)cc1 [Example 8.280] | 1230 |
| CC(=O)N[C@@H](C)c1ccc(O[C@@H]2CCN(c3nc(N4CCC[C@@H]4C)ncc3Cl)C2)cc1 [Example 8.281] | 372 |
| CC(=O)N[C@@H](C)c1ccc(O[C@@H]2CCN(c3nc(N4CCC[C@@H]4C)ncc3F)C2)cc1 [Example 8.282] | 157 |
| CC(=O)N[C@@H](C)c1ccc(O[C@@H]2CCN(c3nc(N4CCC[C@H]4C)ncc3F)C2)cc1 [Example 8.283] | 57 |
| CC(=O)N[C@@H](C)c1ccc(O[C@@H]2CCN(c3ncnc(N4CCC[C@@H]4C)c3F)C2)cc1 [Example 8.284] | 240 |
| CC(=O)N[C@@H](C)c1ccc(O[C@@H]2CCN(c3nc(N4CCC[C@H]4C)ncc3Cl)C2)cc1 [Example 8.285] | 89 |
| CC(=O)N[C@@H](C)c1ccc(O[C@@H]2CCN(c3ncnc(N4CCC[C@H]4C)c3F)C2)cc1 [Example 8.286] | 165 |
| CC(=O)N[C@@H](C)c1ccc(O[C@@H]2CCN(c3ncnc(N4CC[C@@H](F)C4)c3F)C2)cc1 [Example 8.287] | 455 |
| CC(=O)N[C@@H](C)c1ccc(O[C@@H]2CCN(c3nc(N(CCO)C4CC4)ncc3F)C2)cc1 [Example 8.288] | 874 |
| CC(=O)N[C@@H](C)c1ccc(O[C@@H]2CCN(c3nc(N4CC(F)(F)C4)ncc3Cl)C2)cc1 [Example 8.289] | 484 |

| Structure (SMILES) | IC50 [nM] |
| --- | --- |
| CC(=O)N[C@@H](C)c1ccc(O[C@@H]2CCN(c3nc(N(C)C4CCOCC4)ncc3F)C2)cc1 [Example 8.290] | 765 |
| CC(=O)N[C@@H](C)c1ccc(O[C@@H]2CCN(c3ncnc(N4CC[C@](C)(O)C4)c3F)C2)cc1 [Example 8.291] | 111 |
| CC(=O)N[C@@H](C)c1ccc(O[C@@H]2CCN(c3ncnc(NCC4(O)CCC4)c3F)C2)cc1 [Example 8.292] | 359 |
| CC(=O)N[C@@H](C)c1ccc(O[C@@H]2CCN(c3ncnc(N4CC[C@H](C)C4)c3F)C2)cc1 [Example 8.293] | 50 |
| CC(=O)N[C@@H](C)c1ccc(O[C@@H]2CCN(c3ncnc(N4CC[C@@H](C)C4)c3F)C2)cc1 [Example 8.294] | 52 |
| COc1c(N2CC[C@@H](Oc3ccc([C@H](C)NC(C)=O)cc3)C2)ncnc1N1CCC(C)(O)C1 (stereo partly drawn) [Example 8.295] | 790 |
| CC(=O)N[C@@H](C)c1ccc(O[C@@H]2CCN(c3ncnc(NCC(C)(C)O)c3Cl)C2)cc1 [Example 8.296] | 113 |
| CC(=O)N[C@@H](C)c1ccc(O[C@@H]2CCN(c3ncnc(N4CCC(C)(O)C4)c3Cl)C2)cc1 (stereo partly drawn) [Example 8.297] | 224 |
| CCCNc1ncnc(N2CC[C@@H](Oc3ccc([C@H](C)NC(C)=O)cc3)C2)c1Cl [Example 8.298] | 156 |
| CC(=O)N[C@@H](C)c1ccc(O[C@@H]2CCN(c3ncnc(NCC4(O)CCC4)c3Cl)C2)cc1 [Example 8.299] | 70 |
| COc1c(NCC2(O)CCC2)ncnc1N1CC[C@@H](Oc2ccc([C@H](C)NC(C)=O)cc2)C1 [Example 8.300] | 537 |
| CCCNc1ncnc(N2CC[C@@H](Oc3ccc([C@H](C)NC(C)=O)cc3)C2)c1OC [Example 8.301] | 809 |
| CCCNc1ncc(F)c(N2CC[C@@H](Oc3ccc([C@H](C)NC(C)=O)cc3)C2)n1 [Example 8.302] | 202 |
| CC(=O)N[C@@H](C)c1ccc(O[C@@H]2CCN(c3nc(NCC4CC4)ncc3F)C2)cc1 [Example 8.303] | 301 |
| CC(=O)N[C@@H](C)c1ccc(O[C@@H]2CCN(c3nc(NCC(F)F)ncc3F)C2)cc1 [Example 8.304] | 510 |
| CC(=O)N[C@@H](C)c1ccc(O[C@@H]2CCN(c3ncnc(NCC4(O)CC4)c3Cl)C2)cc1 [Example 8.305] | 176 |
| CCC(=O)Nc1nc(C)c(C(=O)N[C@@H](C)c2ccc(O[C@@H]3CCN(c4ncnc(NCC5CC5)c4Cl)C3)cc2)s1 [Example 8.307] | 94 |
| CC(=O)N[C@@H](C)c1ccc(O[C@@H]2CCN(c3ncnc(NC4CCCC4)c3Cl)C2)cc1 [Example 8.308] | 105 |
| CC(=O)N[C@@H](C)c1ccc(O[C@@H]2CCN(c3ncnc(NCC4CC4)c3Cl)C2)cc1 [Example 8.309] | 42 |

| Structure (SMILES) | IC50 [nM] |
| --- | --- |
| CC(=O)N[C@@H](C)c1ccc(O[C@@H]2CCN(c3ncnc(N4CC[C@H](C)C4)c3Cl)C2)cc1 [Example 8.310] | 52 |
| CC(=O)N[C@@H](C)c1ccc(O[C@@H]2CCN(c3ncnc(NCC4CCC4)c3Cl)C2)cc1 [Example 8.311] | 62 |
| CCCNc1ncnc(N2CC[C@@H](Oc3ccc([C@H](C)NC(=O)c4sc(NC(=O)CC)nc4C)cc3)C2)c1Cl [Example 8.312] | 286 |
| CC(=O)N[C@@H](C)c1ccc(O[C@@H]2CCN(c3ncnc(NCC4CCCO4)c3Cl)C2)cc1 (stereo partly drawn) [Example 8.313] | 306 |
| CCC(C)Nc1ncnc(N2CC[C@@H](Oc3ccc([C@H](C)NC(C)=O)cc3)C2)c1Cl (stereo partly drawn) [Example 8.314] | 345 |
| CCC(=O)Nc1nc(C)c(C(=O)N[C@@H](C)c2ccc(O[C@@H]3CCN(c4ncnc(NCC(F)F)c4Cl)C3)cc2)s1 [Example 8.315] | 552 |
| CC(=O)N[C@@H](C)c1ccc(O[C@@H]2CCN(c3ncnc(NCC4CCCCO4)c3Cl)C2)cc1 (stereo partly drawn) [Example 8.316] | 580 |
| CCCNc1ncnc(N2CC[C@@H](Oc3ccc([C@H](C)NC(=O)c4sc(NC(=O)CC)nc4C)cc3)C2)c1F [Example 8.318] | 703 |
| CCCNc1ncnc(N2CC[C@@H](Oc3ccc([C@H](C)NC(=O)c4sc(NC(=O)CC)nc4C)cc3)C2)c1OC [Example 8.320] | 742 |
| CCC(=O)Nc1nc(C)c(C(=O)N[C@@H](C)c2ccc(O[C@@H]3CCN(c4ncnc(NCC(F)F)c4OC)C3)cc2)s1 [Example 8.321] | 830 |
| COc1cccc(-c2nccc(N3CC[C@@H](Oc4ccc([C@H](C)NC(C)=O)cc4)C3)n2)c1 [Example 9.1, N—((S)-1-(4-((R)-1-(2-(3-methoxyphenyl)pyrimidin-4-yl)pyrrolidin-3-yloxy)phenyl)ethyl)acetamide] | 725 |
| CC(=O)N[C@@H](C)c1ccc(O[C@@H]2CCN(c3ncnc(C4CC4)c3Cl)C2)cc1 [Example 9.2] | 987 |
| CC(=O)N[C@@H](C)c1ccc(O[C@@H]2CCN(c3ncnc(C4CCC4)c3F)C2)cc1 [Example 9.3] | 342 |
| CC(=O)N[C@@H](C)c1ccc(O[C@@H]2CCN(c3ncnc(C4CCCC4)c3F)C2)cc1 [Example 9.4] | 464 |
| CC(=O)N[C@@H](C)c1ccc(O[C@@H]2CCN(c3ncnc(C4CC4)c3F)C2)cc1 [Example 9.5] | 1010 |
| CC(=O)N[C@@H]1CC[C@H](C(=O)N[C@@H](C)c2ccc(O[C@@H]3CCN(c4ncnc(OCC5CC5)c4F)C3)cc2)C1 [Example 10.1, (1S,3R)-3-acetamido-N—((S)-1-(4-((R)-1-(6-(cyclopropylmethoxy)-5-fluoropyrimidin-4-yl)pyrrolidin-3-yloxy)phenyl)ethyl)cyclopentanecarboxamide] | 235 |
| COCC(=O)N[C@@H]1CC[C@H](C(=O)N[C@@H](C)c2ccc(O[C@@H]3CCN(c4ncnc(OCC5CC5)c4F)C3)cc2)C1 [Example 10.2] | 174 |
| C[C@H](NC(=O)C1CC1)c1ccc(O[C@@H]2CCN(c3nc(N4CCC5(CC5)C4)ncc3F)C2)cc1 [Example 10.4] | 120 |
| C[C@H](NC(=O)C1CC1)c1ccc(O[C@@H]2CCN(c3nc(N4CCOCC4)ncc3F)C2)cc1 [Example 10.5] | 295 |
